Patent US8663616B2, “Enzymatic peracid generation for use in oral care products” (E I du Pont de Nemours and Company, priority 2010, dated 2014)
Ends that are not written are not given here. * marks the point of attachment. Biotin = O=C1N[C@H]2[C@H](CS[C@H]2CCCCC(=O)*)N1

Columns and labels:
[1] = molecular target: T1, C277S (SEQ ID NO: 424) (Thermotoga maritima, UniProt Q9WXT2, C277S); assay type: biochemical; conditions: 100 mM ester, 60 mM H2O2, 40 ppm enzyme, 95 mM phosphate pH 7.2, 37° C.
T1 construct: made in house; host or cells: E. coli
Procedure: (§1) To test various enzymes against an ester substrate, it was convenient to run up to 4 reactions simultaneously by staggering the beginning of each individual reaction by 0.5-1 min. Each individual reaction was performed in a glass vessel (height: 76 mm; o.d.: 33 mm; i.d.: 24 mm) equipped with a magnetic stirring bar. Four reaction vessels were banded together and kept at constant temperature in a jacketed one-liter, stainless steel, tempering beaker (KGW IsoTherm, # TSS-G 1000W) with circulating water controlled by a Thermo NesLab recirculation bath (Model # RTE-7 Digital One). Buffer (6 mL, 100 mM sodium phosphate buffer, pH 7.2) was added to each reaction vessel and allowed to equilibrate to 37° C. The ester substrate of interest was added to achieve 100 mM concentration. […] To follow the production of peracetic acid, 80 μL samples from each reaction were removed at specific intervals from 1 to 15 minutes. The sample was immediately quenched in a microfuge filter tube (NanoSep 30K VWR cat #82031-354) containing a volume and concentration of phosphoric acid solution that was sufficient to stop the enzymatic reaction (by lowering the pH between 2 and 3) and to dilute the sample for convenient HPLC analyses. The acid-quenched samples were centrifuged for 5 minutes to remove any particulates.

[2] = Bleaching of coffee-tea stained bovine enamel with EZ-1 and various ester substrates (Example 15); set-up: Whiteness Index Treatment 0 / Whiteness Index Treatment 1 / Whiteness Index Treatment 2 / Whiteness Index Treatment 3 / ΔWI: scale not given here; conditions: for Whiteness Index Treatment 1: after 1 x 30 min treatment; for Whiteness Index Treatment 2: after 2 x 30 min treatments; for Whiteness Index Treatment 3: after 3 x 30 min treatments; for Whiteness Index Treatment 0: before treatment, 40 ppm EZ-1, 100 mM substrate, H2O2 100 mM (TA), 360 mM (PGDA, SOC), 60 mM (GPA), pH 7.2, control 9% H2O2 pH 5.3 without enzyme; for change in whiteness index (in words): enzymatically generated peracetic acid with EZ-1, each successive treatment; for ΔWI: treatment 0 to treatment 3
Procedure: The optimal conditions used for the generation of peracetic acid with each substrate were derived from the studies in Example 14 and are listed below as follows:
Bovine enamel incisors were prepared as indicated in Example 1. The stained enamel blocks were placed in a 24 well plate with the dentin side facing down and hydrated overnight in phosphate buffer, pH 7.2. Prior to treatment, a color measurement of each tooth was performed using a Konica-Minolta 2600d spectrophotometer and whiteness index was calculated as specified in Example 1.
Each enzyme solution was prepared in a 1.5-mL microfuge tube (Eppendorf, #2243102-1) and 1 mL of the solution was immediately transferred to the 24 well plate containing the pre-hydrated teeth. The control samples consisted of 100 mM phosphate buffer, pH 7.2 and 9% H2O2 in 100 mM citrate/phosphate buffer, pH 5.3. The teeth were incubated at room temperature for 30 minutes, removed, rinsed with 100 mM phosphate, pH 7.2 and a color measurement was taken. The teeth were placed back into the 24 well plate at which time fresh enzyme solutions were prepared and added to each well. This process was repeated for a total of 3 whitening treatments; 30 min per treatment (Table 22).

[3] = molecular target: T2, C277T/R296P (SEQ ID NO: 476) (Thermotoga maritima, UniProt Q9WXT2, C277T/R296P); assay type: biochemical; conditions: 100 mM ester, 60 mM H2O2, 40 ppm enzyme, 95 mM phosphate pH 7.2, 37° C.
T2 construct: made in house; host or cells: E. coli
Procedure: as §1

[4] = molecular target: T3, Wild Type (SEQ ID NO: 16) (Thermotoga maritima, UniProt Q9WXT2); assay: Maximum peracetic acid from ester substrates with wild type perhydrolase (Example 14); assay type: biochemical; conditions: 100 mM ester, 60 mM H2O2, 40 ppm enzyme, 95 mM phosphate pH 7.2, 37° C.
T3 construct: made in house; host or cells: E. coli
T3 sequence (Q9WXT2 1-325): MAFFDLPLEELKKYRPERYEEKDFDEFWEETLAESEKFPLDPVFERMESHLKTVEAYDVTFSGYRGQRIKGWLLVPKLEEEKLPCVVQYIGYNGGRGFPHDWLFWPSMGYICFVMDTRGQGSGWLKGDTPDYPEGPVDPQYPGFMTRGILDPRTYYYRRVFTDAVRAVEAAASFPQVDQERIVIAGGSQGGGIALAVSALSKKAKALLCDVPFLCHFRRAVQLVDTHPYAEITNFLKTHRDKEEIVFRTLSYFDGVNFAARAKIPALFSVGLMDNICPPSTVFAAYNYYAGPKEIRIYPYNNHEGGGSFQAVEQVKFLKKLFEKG
Procedure: as §1

[5] = molecular target: T4, C277T (SEQ ID NO: 437) (Thermotoga maritima, UniProt Q9WXT2, C277T); assay type: biochemical; conditions: 100 mM ester, 60 mM H2O2, 40 ppm enzyme, 95 mM phosphate pH 7.2, 37° C.
T4 construct: made in house; host or cells: E. coli
Procedure: as §1

[6] = 20 μM biotin-labelled peptide, 30 min 37° C.; streptavidin-HRP, QuantaBlu; three replicate enamel substrates; no peptide 494.2
Procedure: A total of 11 synthetic peptides were manufactured using sequences obtained from Table 3. Peptides were obtained from SynBioSci Corp. (Livermore, Calif.) with biotin labeled lysine at the C-terminus.
Enamel substrates were prepared as described in Example 2. Each substrate was incubated for 1 h at room temperature (˜22° C.) with 1 mL of blocking buffer, consisting of 1 mg/mL BSA in PBST (Pierce BUPH™ #28372 with 0.1% TWEEN® 20). The blocking buffer was removed by aspirating the liquid out of each well. The tube was rinsed 2 times with wash buffer consisting of PBST. The wells were filled with 500 μL of 20 μM peptide solution which was prepared by diluting in blocking buffer. The samples were incubated for 30 min with slow shaking at 37° C. The non-binding peptide was removed by washing 6 times with PBST. Then, 500 μL of horseradish peroxidase/streptavidin conjugate (Pierce #22127), diluted 1:1000 in PBST, was added and incubated for 1 h at room temperature (˜22° C.). The conjugate solution was removed and the enamel blocks were washed 4 times with PEST.
Each enamel substrate was removed from the well and washed again in a 15-mL test tube with 10 mL of PBST. Each enamel substrate was then mounted in a clean well plate with only the enamel surface exposed. 200 μL of a QUANTABLU™ Substrate Solution (Thermo-Fisher, Rockford, Ill.; #1856187) was added directly to each enamel block. The solution was incubated for 20 min at room temperature. 200 μL of QUANTABLU™ Stop Solution (Thermo Fisher) was added. After mixing, 200 μL of solution was transferred to a clean 96-well black microcentrifuge plate. The fluorescence of the plate was measured with 325 nm excitation and 420 nm emission with no cutoff wavelength using a microplate spectrophotometer (Molecular Devices, Sunnyvale, Calif.). The analysis of the 11 pellicle/enamel binding candidates was compared to a known binding peptide, DenP03. Each sequence was tested with three replicate enamel substrates.

T1 sequence (Q9WXT2 whole entry C277S): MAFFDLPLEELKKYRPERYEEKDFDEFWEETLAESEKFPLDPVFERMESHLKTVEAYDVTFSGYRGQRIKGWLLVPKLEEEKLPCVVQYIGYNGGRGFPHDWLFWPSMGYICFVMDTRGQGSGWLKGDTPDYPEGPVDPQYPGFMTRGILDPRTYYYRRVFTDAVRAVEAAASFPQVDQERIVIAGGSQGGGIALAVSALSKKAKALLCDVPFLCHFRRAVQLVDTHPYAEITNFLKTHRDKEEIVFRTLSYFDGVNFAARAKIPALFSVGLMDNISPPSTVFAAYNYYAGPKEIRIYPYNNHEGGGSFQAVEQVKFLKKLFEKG
T4 sequence (Q9WXT2 whole entry C277T): as the sequence (Q9WXT2 whole entry C277S) above, with S277T counted along it
T2 sequence (Q9WXT2 whole entry C277T/R296P): as the sequence (Q9WXT2 whole entry C277S) above, with S277T, R296P counted along it

Compound | Maximum Peracetic Acid (PAA) (ppm), C277S (SEQ ID NO: 424) [1] [ppm] | Maximum Peracetic Acid (PAA) (ppm), C277T/R296P (SEQ ID NO: 476) [3] [ppm] | Maximum Peracetic Acid (PAA) (ppm), Wild Type (SEQ ID NO: 16) [4] [ppm] | Maximum Peracetic Acid (PAA) (ppm), C277T (SEQ ID NO: 437) [5] [ppm] | Avg Fluorescence 325/420 [6] | other results
CC(=O)OCC(C)OC(C)=O (stereo not drawn) [Propylene glycol diacetate] | 1128 | 1202 | 780 | 1245 | – | Whiteness Index Treatment 1 [2]: −108.0; Whiteness Index Treatment 2 [2]: −80.9; Whiteness Index Treatment 3 [2]: −80.1; Whiteness Index Treatment 0 [2]: −181.4; change in whiteness index (in words) [2]: significant change in whiteness index; ΔWI [2]: 101.3
CC(=O)OC[C@H]1O[C@@](COC(C)=O)(O[C@H]2O[C@H](COC(C)=O)[C@@H](OC(C)=O)[C@H](OC(C)=O)[C@H]2OC(C)=O)[C@@H](OC(C)=O)[C@@H]1OC(C)=O [Sucrose octaacetate] | 215 | 501 | 304 | 493 | – | Whiteness Index Treatment 1 [2]: −135.2; Whiteness Index Treatment 2 [2]: −135.9; Whiteness Index Treatment 3 [2]: −128.8; Whiteness Index Treatment 0 [2]: −172.8; change in whiteness index (in words) [2]: significant change in whiteness index; ΔWI [2]: 44.0
CC(=O)OCC(COC(C)=O)OC(C)=O [Triacetin] | 1977 | 2291 | 937 | 2311 | – | Whiteness Index Treatment 1 [2]: −108.7; Whiteness Index Treatment 2 [2]: −86.7; Whiteness Index Treatment 3 [2]: −86.1; Whiteness Index Treatment 0 [2]: −189.9; change in whiteness index (in words) [2]: significant change in whiteness index; ΔWI [2]: 103.8
CC(=O)OC[C@H]1O[C@H](OC(C)=O)[C@H](OC(C)=O)[C@@H](OC(C)=O)[C@@H]1OC(C)=O [α-D-glucose pentaacetate] | 2091 | 1678 | 1188 | 2542 | – | Whiteness Index Treatment 1 [2]: −128.7; Whiteness Index Treatment 2 [2]: −105.3; Whiteness Index Treatment 3 [2]: −95.9; Whiteness Index Treatment 0 [2]: −225.2; change in whiteness index (in words) [2]: significant change in whiteness index; ΔWI [2]: 129.3
CC(=O)OC[C@H]1O[C@H](OC(C)=O)[C@@H](OC(C)=O)[C@@H](OC(C)=O)[C@@H]1OC(C)=O [α-D-mannopyranose pentaacetate] | 4017 | 3752 | 4023 | 4212 | – | –
CC(=O)OC[C@H]1O[C@@H](OC(C)=O)[C@H](OC(C)=O)[C@@H](OC(C)=O)[C@H]1OC(C)=O [β-D-galactose pentaacetate] | 2539 | 1947 | 764 | 2546 | – | –
CC(=O)O[C@@H]1O[C@H](CO)[C@@H](OC(C)=O)[C@H](OC(C)=O)[C@H]1OC(C)=O [β-D-glucopyranose,1,2,3,4-tetraacetate] | 2309 | 2235 | 2129 | 2225 | – | –
CC(=O)OC[C@H]1O[C@@H](OC(C)=O)[C@H](OC(C)=O)[C@@H](OC(C)=O)[C@@H]1OC(C)=O [β-D-glucose pentaacetate] | 2178 | 1716 | 1158 | 2531 | – | –
CC(=O)OC[C@H]1O[C@@H](OC(C)=O)[C@H](OC(C)=O)[C@H]1OC(C)=O [β-D-xylofuranose tetraacetate] | 3354 | 3158 | 2384 | 3481 | – | –
ANSGFPIWLQKYPWSEVQQEK (Biotin) [DenP309] | – | – | – | – | 1729.5 | –
ATPSQHRYGLMQNHAPNGIEK(Biotin) [DenP311] | – | – | – | – | 795.3 | –
DLGTFPNRTLKMAAHK(Biotin) [DenP304] | – | – | – | – | 642.8 | –
DTIHPNKMKSPSSPLK (Biotin) [DenP305] | – | – | – | – | 581.2 | –
GMGSEVLSQYPQAPVGK(Biotin) [DenP312] | – | – | – | – | 2301.0 | –
GSNNHLPSTVPRLTVK(Biotin) [DenP306] | – | – | – | – | 1300.0 | –
HDPYTMKSALRQSTSK(Biotin) [DenP303] | – | – | – | – | 948.6 | –
QAAQVHMMQHSRPTTK (Biotin) [DenP302] | – | – | – | – | 608.6 | –
SNATMYNIQSHSHHQK (Biotin) [DenP301] | – | – | – | – | 1098.4 | –
SNPIPNFAHDLRHSKYNSK (Biotin) [DenP307] | – | – | – | – | 861.6 | –
TKPPRTPTANTSRPHHNFK(Biotin) [DenP308] | – | – | – | – | 12302.6 | –
TTYHYKNIYQESYQQRNPAVK (Biotin) [DenP03, reference compound] | – | – | – | – | 3448.3 | –
